Values of other authors in paper PMC6727202 (Molecular pharmaceutics, 2019).

System: kidney

For `NCCCC[C@H](N)C(=O)O` [lysine], the “Reduction of kidney uptake of radiolabeled octreotide” value (lysine) is given as ~ 35% and the “Reduction of renal uptake of radiolabeled octreotide” value (oral or intravenous administration of lysine) is given as “up to 40%”.
